Reference: paper PMC11707430, “Novel antibiotics against Staphylococcus aureus without detectable resistance by targeting proton motive force and FtsH” (MedComm, 2025)

Columns and labels:
S. aureus biofilm [1] = assay: Biofilm determination by XTT assay; type: cell-based
Method: (§1) Biofilm determination by XTT assay. To determine the biofilm inhibition, overnight cultures of S. aureus were diluted with TSB containing 2-fold diluted antimicrobials at the ratio of 1: 100 and added to a 96-well plate. After incubation statically at 37 ℃ for 24h, the supernatant was carefully removed and washed with PBS. (2,3-Bis-(2-methoxy-4-nitro-5-sulfophenyl)-2H-tetrazolium-5-carboxanilide) (XTT, 0.2 mg/ml) and Phenazin (methylsufate) (PMS, 0.02 mg/ml) were mixed with 1× PBS and added to each well of the 96-well plate (100 μL/well). The plate was then incubated for 3h in the dark, and the absorbance was measured at 490 nm (A490nm). For biofilm eradication, overnight cultures of S. aureus were diluted with fresh TSB at 1:100 and incubated for 24h to pre-form biofilms. Subsequently, the supernatant was removed and washed with PBS, and 200 μL of TSB in the presence of 2-fold diluted antimicrobials was added to each well. After incubation at 37 ℃ for 24h, the supernatant was removed and stained with XTT as described above^7.

RAW264.7 = assay: Inflammatory factors inhibition; type: cell-based; conditions: LPS-treated RAW264.7, 16 μg/mL, 12 h
Method: Inflammatory factors inhibition by compounds. Cell line of RAW264.7 was cultured in DMEM medium with 10% FBS. After incubation at 37 ℃ 5% CO2 to log phase, the attached cells were washed with 1× PBS and added with 1 μg/mL of LPS. After incubation at 37 ℃ 5% CO2 for 30 min, 16 μg/mL of C218-0546 or STK848198 was added to each well. The cells were further cultured for 12h, and the cell precipitate was collected for qRT-PCR while the supernatant was collected for ELISA.
For gene expression determination. One milliliter of Trizol was added to lysis the cells. Then, the suspension was incubated with 200 μL chloroform for 3 min. After centrifugation at 12000 rpm 4℃ for 15 min, the aqueous phase was removed to RNase-free tubes, and added with equal volume of isopropanol. After centrifugation at 12000 rpm 4℃, the RNA precipitation was collected and wash with 75% ethanol. […] Absorbance at 260nm and 280 nm was detected to determine the RNA concentration and purity. cDNA was synthesized with HiFiScript cDNA Synthesis Kit (CoWin Biosciences, Beijing, China) according to the manufacture’s specification, and UltraSYBR Mixture (2×, CoWin Biosciences, Beijing, China) was used for qPCR determination.
ELISA kit (Proteintech, Wuhan, China) was used for cytokines production quantification. […] Then, 100 μL substrate was added to each well and the absorbance at 450 nm was determined.

hERG = target: T1, hERG (Homo sapiens, UniProt Q12809); assay: hERG patch clamp; type: cell-based; conditions: HEK293 cells expressing hERG channels, pH 7.4, hERG potassium channels
T1 construct: expressed in transfected cells; host or cells: HEK293
T1 sequence (Q12809 whole entry): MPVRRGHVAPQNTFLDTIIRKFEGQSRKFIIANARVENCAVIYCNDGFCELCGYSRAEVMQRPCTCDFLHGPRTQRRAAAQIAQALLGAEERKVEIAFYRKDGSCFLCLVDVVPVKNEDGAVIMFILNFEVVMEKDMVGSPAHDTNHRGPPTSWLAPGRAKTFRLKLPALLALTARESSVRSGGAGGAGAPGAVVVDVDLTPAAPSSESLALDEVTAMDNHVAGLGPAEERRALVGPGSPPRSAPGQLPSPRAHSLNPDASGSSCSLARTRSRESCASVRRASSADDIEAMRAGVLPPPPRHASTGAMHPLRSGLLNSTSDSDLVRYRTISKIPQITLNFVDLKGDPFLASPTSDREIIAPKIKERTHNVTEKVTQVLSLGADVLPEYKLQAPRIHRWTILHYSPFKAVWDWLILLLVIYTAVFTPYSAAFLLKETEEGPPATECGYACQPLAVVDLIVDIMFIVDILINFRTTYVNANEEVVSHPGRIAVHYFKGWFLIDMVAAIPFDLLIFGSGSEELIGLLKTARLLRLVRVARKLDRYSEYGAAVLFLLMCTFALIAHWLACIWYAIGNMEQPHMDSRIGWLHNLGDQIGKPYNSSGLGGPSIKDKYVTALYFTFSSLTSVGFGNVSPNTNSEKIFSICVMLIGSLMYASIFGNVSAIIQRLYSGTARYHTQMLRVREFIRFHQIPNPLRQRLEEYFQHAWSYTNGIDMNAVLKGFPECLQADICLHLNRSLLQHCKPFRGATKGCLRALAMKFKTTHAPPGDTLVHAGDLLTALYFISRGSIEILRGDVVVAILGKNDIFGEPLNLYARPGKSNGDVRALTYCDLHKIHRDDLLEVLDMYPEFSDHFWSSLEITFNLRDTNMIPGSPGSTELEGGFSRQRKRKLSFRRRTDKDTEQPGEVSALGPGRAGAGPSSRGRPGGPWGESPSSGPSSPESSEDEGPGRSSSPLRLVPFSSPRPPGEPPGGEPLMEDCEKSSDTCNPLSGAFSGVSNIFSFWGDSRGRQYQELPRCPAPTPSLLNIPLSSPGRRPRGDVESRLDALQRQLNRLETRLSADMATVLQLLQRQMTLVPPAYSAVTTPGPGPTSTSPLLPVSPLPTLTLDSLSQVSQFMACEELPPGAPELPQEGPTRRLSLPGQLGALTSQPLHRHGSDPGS
Method: hERG. hERG channels expressed HEK293 cell line was cultured in DMEM at 37℃ with 10% FBS to ~70% of log phase. Then, the cells were washed with PBS and digested with trypsin. After incubation at 37 ℃ for 2-3 min, the cells were washed again and adjusted to ~ 2×10^3/mL. The patch clamp detection experiment was performed after the cells attached to the cell wall. The extracellular fluid was prepared as 137 mM NaCl,1 mM MgCl2‧6H2O, 4 mM KCl,1.8 mM CaCl2‧2H2O, 10 mM D-Glucose, 10 mM HEPES, pH=7.4. And the intracellular fluid was prepared as 140 mM KCl,10 mM EGTA, 5 mM MgCl2‧6H2O, 10 mM HEPES, 5 mM Mg-ATP, pH=7.2. The current data was collected by using Pathmaster software. And the peak current inhibition rate was calculated as: (1−Peak tail current compoundPeak tail current veℎicle). The concentration-effects were fitted by the Hill equation: I=Imax∙(1/［1+（C1/2/［C］）^h), where [C], C1/2, and h represented the drug concentration, half inhibitory concentration (IC50), Hill coefficient, respectively^19.

S. aureus biofilm [2] = assay: Biofilm determination by crystal violet staining; type: cell-based
Method: Biofilm determination by crystal violet staining. The biofilm was formed as described above. The planktonic (non-adherent) bacteria were removed by washing the wells with PBS. Added a solution of 0.15% (wt/vol) crystal violet to each well and incubated for 15 min at room temperature. Then, the plates were gently wash with PBS to remove excess crystal violet. One hundred microliters of ethanol were added to each well to solubilize the crystal violet that has bound to the biofilm. The absorbance at 570nm (A570nm) of the solubilized crystal violet was measured with a microplate reader^6.
as §1, with “Subsequently, the supernatant was removed and washed with PBS, and 200 μL of TSB in the presence of 2-fold diluted antimicrobials was added to each well. After incubation at 37 ℃ for 24h, the supernatant was removed and stained with XTT as described above^7.” left out

[3] = In vivo toxicity analysis; set-up: species or system ICR mice; conditions: acute, i.p. 30 mg/kg, 24 h
Method: In vivo toxicity analysis. For acute in vivo toxicity determination, specific ICR female mice (N = 6 per group) were randomly divided into 3 groups. The mice were intraperitoneally injected with EL+ ethanol (vehicle group), or 30 mg/kg of […]=0546 or STK848198. Twenty-four hours post-administration, blood samples were collected from the ophthalmic venous plexus and the hematological parameters of white blood cell count (WBC), neutrophil ratio (N%), red blood cell count (RBC), hemoglobin levels (HGH), and platelet count (PLT) were measured. Meanwhile, serum samples were also collected by centrifuged at 4000 rpm for 10 min. And the biomarkers of alanine aminotransferase (ALT), urea nitrogen (BUN), and creatine kinase (CK) for liver, kidney and heart function monitoring, respectively, were also analyzed. Then, the mice were euthanized, and the organs of heart, liver, spleen, lungs and kidneys were removed and fixed in 4% neutral paraformaldehyde for Hematoxylin and eosin (H&E) staining. In addition, for 7-day in vivo toxicity detection, specific ICR female mice (N=5 per group) were intraperitoneally injected with 30 mg/kg of […]=0546 or STK848198 every day for a total of 7 days. The body weight was monitored, and the blood samples and organs were also collected and analyzed as described above^43.

S. aureus = assay: Peritonitis-sepsis model; type: in vivo, ICR mice; conditions: i.p., 24 h postinfection
Method: Peritonitis-sepsis model. Six to seven-week-old female ICR mice were included. […] Mice were injected with 500 μL of the suspension in the presence of 5% mucin by i.p.. An hour post-infection, the mice were administered with: 1) EL+ethanol, 2) […]-0546 (30 mg/kg), and 3) STK848198 (30 mg/kg) alone or in combination with ampicillin (AMP, 25 mg/kg)^38 or amikacin (AMK, 25 mg/kg).

[4] = Liver microsomal metabolism analysis; type: in vitro ADME; conditions: human; liver microsomes in vitro
Method: Liver microsomal metabolism analysis. Human liver microsome (20 mg protein/mL) was purchased from IPHASE (Beijing, China). One microliter of C218-0546 or STK848198 (200 μM) was incubated with 2 μL of liver microsome in the presence or absence of NADPH. Phenacetin (100 μM) was used as a positive control. After incubation at 37℃ for 0, 15, 30, 45, 60 and 90 min, respectively, the samples were cooled on ice and added with 500 μL of stop solution. The remained compounds were quantified with a LC-MS (Triple Quad™ 5500, AB SCIEX, USA).

Cc1nc2c(-c3ccc(Cl)cc3)cnn2c(O)c1Cc1ccccc1 [STK848198]
concentration inhibiting biofilm viability (S. aureus biofilm [1]; biofilm inhibition): 0.125 µg/mL
concentration reducing preformed biofilm viability (S. aureus biofilm [1]; preformed biofilm): 0.5 µg/mL
inflammatory cytokines production (IL-1β, IL-6, TNFα decreased, IL-10 enhanced) (RAW264.7): inhibit inflammatory progress
IC50 (hERG): > 30 µM
concentration inhibiting biofilm biomass formation (S. aureus biofilm [2]; biofilm inhibition): 0.25 µg/mL
concentration eradicating preformed biofilm biomass (S. aureus biofilm [2]; preformed biofilm): 2 µg/mL
erythrocyte, leukocyte, platelet parameters, ALT, BUN, CK vs vehicle [3]: No significant difference
bacterial loads in liver, spleen, lung, and kidney (S. aureus; STK848198 30 mg/kg combined with AMP 25 mg/kg): significantly reduced the bacterial loads
bacterial loads in organs (S. aureus; single use, vs vehicle): no statistical difference
half-life [4]: 43.6 min
